This note sets out measurements from US8680367B2, “Method to prime plants in order to increase their pathogen resistance” (priority 2004, dated 2014).

SMILES strings stand for the structures.

The test system of the assay is callose deposition. Briefly: Callose deposition in Arabidopsis after Peronospora parasitica infection. It is filed as in vivo. The conditions noted are these: positive control plants treated with BABA. On the procedure:
This is represented by the disease index on the Y axis. […] Resistance assays were performed as described previously (Plant Cell 1996, 8, 1225-1237; Plant cell 1998, 10, 1571-1580). B. KO of RKS4 (rks4-1; increased expression of N-terminus, see FIG. 4) also increases resistance to Peronospora parasitica, although less than the positive control induced with β-aminobutyric acid (BABA). Plants were scored using an arbitrary scale I-IV, in which I means normal to very slight symptoms and IV means severe symptoms to death. C. […] Both tests were performed as described in (Plant Cell., 2005, 17, 987-999).
Callose deposition was observed on Arabidopsis leaves after infection with Hyaloperonospora parasitica essentially as described by Ton et al. (Plant Cell (2005) 17(3):987-999).

`CC(N)CC(=O)O` (stereo not drawn) [BABA, β-aminobutyric acid]: the “Callose deposition upon treatment” value is “increased”.
